# Experiment: Solubility comparison in toluene at room temperature
# Format: physicochemical
# Conditions: about 50 mg of solid dissolved
row,Compound,solubility
1,"CC1=Cc2c(ccc3ccccc23)[C]12[Si](C)(C)[C]1(C(C)=Cc3c1ccc1ccccc31)[Zr]2([Cl])[Cl] (stereo not shown) [dimethylsilanediylbis(2-methyl-4,5-benzoindenyl)zirconium dichloride]",about 0.36 mmol/l
2,Cc1cc2ccccc2[c-]1[Si](C)(C)[c-]1c(C)cc2ccccc21.[Cl-].[Cl-].[Zr+4] (stereo not shown) [dimethylsilanediylbis(2-methylindenyl)zirconium dichloride],about 2.1 mmol/l
3,"CC1=Cc2c(ccc3ccccc23)[C]12[Si](C)(C)[C]1(C(C)=Cc3c1ccc1ccccc31)[Zr]2([Cl])[O]c1ccc(C(C)(C)C)cc1C(C)(C)C (stereo not shown) [compound 1, Dimethylsilanediylbis(2-methyl-4,5-benzoindenyl)zirconium monochloride mono(2,4-di-tert-butylphenoxide)]",> 13 mM
4,"Dimethylsilanediylbis(2-methylindenyl)zirconium monochloride mono(2,4-di-tert-butylphenoxide) [compound 2]",> 15 mM

# From US7053160B1, “Metallocene monohalogenides” (Basell Polyolefine GmbH, priority 1998, dated 2006)
